“And” between values parts separate entries of the source, which are not always exact repeats. Identical values can stand only once.
How the values were obtained:
Assay type in all cases: cell-based
[1] = test system: Pythium ultimum; assay: Pythium ultimum (Damping Off) growth inhibition, microtiter plate, photometric
Description: Pythium ultimum (Damping Off):
Mycelial fragments of the fungus, prepared from a fresh liquid culture, were directly mixed into nutrient broth (potato dextrose broth). After placing a (DMSO) solution of the test compounds into a microtiter plate (96-well format) the nutrient broth containing the fungal spores was added.

[2] = test system: Rhizoctonia solani; assay: Rhizoctonia solani (Foot Rot, Damping-Off) growth inhibition, microtiter plate, photometric
Description: Rhizoctonia solani (Foot Rot, Damping-Off):
Mycelial fragments of the fungus from cryogenic storage were directly mixed into nutrient broth (potato dextrose broth). After placing a (DMSO) solution of the test compounds into a microtiter plate (96-well format) the nutrient broth containing the fungal spores was added.

[3] = test system: Gaeumannomyces graminis; assay: Gaeumannomyces graminis growth inhibition, microtiter plate, photometric
Description: Mycelial fragments of the fungus from cryogenic storage were directly mixed into nutrient broth (potato dextrose broth). After placing a (DMSO) solution of the test compounds into a microliter plate (96-well format) the nutrient broth containing the fungal spores was added.

[4] = test system: Glomerella lagenarium (syn. Colletotrichum lagenarium); assay: Glomerella lagenarium (Anthracnose of Cucurbits) growth inhibition, microtiter plate, photometric; settings: alone
Description: Glomerella lagenarium (syn. Colletotrichum lagenarium), Anthracnose of Cucurbits:
(§1) Conidia of the fungus from cryogenic storage were directly mixed into nutrient broth (potato dextrose broth). After placing a (DMSO) solution of the test compounds into a microtiter plate (96-well format) the nutrient broth containing the fungal spores was added.

[5] = test system: Septoria tritici; assay: Septoria tritici (Leaf Blotch) growth inhibition, microtiter plate, photometric
Description: Septoria tritici (Leaf Blotch):
as §1

[6] = test system: Mycosphaerella arachidis (syn. Cercospora arachidicola); assay: Mycosphaerella arachidis (Brown Leaf Spot of Groundnut) growth inhibition, microtiter plate, photometric; settings: alone
Description: Mycosphaerella arachidis (syn. Cercospora arachidicola), Brown Leaf Spot of Groundnut (Peanut):
as §1

[7] = test system: Fusarium culmorum; assay: Fusarium culmorum (Root Rot) growth inhibition, microtiter plate, photometric
Description: Fusarium culmorum (Root Rot):
as §1

[8] = test system: Botrvtis cinerea; assay: Botrvtis cinerea (Gray Mould) growth inhibition, microtiter plate, photometric; settings: alone
Description: Botrvtis cinerea (Gray Mould):
as §1

[9] = single compound at 0.125 ppm AI
[10] = single compound at 0.0625 ppm AI

CO/C=C(/C(=O)OC)c1ccccc1Oc1cc(Oc2ccccc2C#N)ncn1 [Azoxystrobin, reference compound]
50% and 70%: AVERAGE DEAD IN % ([6]; 0.03125 PPM AI)
90% and 50%: AVERAGE DEAD IN % ([3]; single compound at 0.015625 ppm AI)
90%: AVERAGE DEAD IN % ([3]; single compound at 0.5 ppm AI) | AVERAGE DEAD IN % ([3]; single compound at 1 ppm AI) | AVERAGE DEAD IN % ([3]; single compound at 2 ppm AI) | AVERAGE DEAD IN % ([5]; 0.125 ppm AI, alone) | AVERAGE DEAD IN % Azoxystrobin ([5]; Azoxystrobin alone, 0.125 ppm AI) | AVERAGE DEAD IN % ([5]; alone, 0.125 ppm AI) | AVERAGE DEAD IN % ([6]; 0.125 ppm AI) | AVERAGE DEAD IN % ([6]; 0.0625 PPM AI)
0%: AVERAGE DEAD IN % [1, 9] | AVERAGE DEAD IN % ([3]; applied alone, 0.00390625 ppm AI) | AVERAGE DEAD IN % ([3]; applied alone, 0.0078125 ppm AI) | AVERAGE DEAD IN % ([3]; applied alone, 0.015625 ppm AI) | AVERAGE DEAD IN % ([3]; applied alone, 0.03125 ppm AI) | AVERAGE DEAD IN % ([3]; applied alone, 0.0625 ppm AI) | AVERAGE DEAD IN % ([4]; 0.0078125 ppm AI) | AVERAGE DEAD IN % ([5]; alone, 0.0078125 ppm AI) | AVERAGE DEAD IN % ([6]; 0.0078125 ppm AI) | AVERAGE DEAD IN % ([6]; 0.015625 ppm AI) | AVERAGE DEAD IN % ([6]; 0.0078125 PPM AI) | AVERAGE DEAD IN % ([7]; alone, 0.5 PPM AI)
50%: AVERAGE DEAD IN % ([3]; applied alone, 0.5 ppm AI) | AVERAGE DEAD IN % ([3]; applied alone, 1 ppm AI) | AVERAGE DEAD IN % ([3]; applied alone, 2 ppm AI) | AVERAGE DEAD IN % [3, 10] | AVERAGE DEAD IN % ([4]; 0.03125 ppm AI) | AVERAGE DEAD IN % ([5]; 0.03125 ppm AI, alone) | AVERAGE DEAD IN % ([5]; alone, 0.03125 ppm AI)
70% and 50%: AVERAGE DEAD IN % ([6]; 0.0625 ppm AI)
70%: AVERAGE DEAD IN % [3, 9] | AVERAGE DEAD IN % ([3]; single compound at 0.25 ppm AI) | AVERAGE DEAD IN % ([5]; 0.0625 ppm AI, alone) | AVERAGE DEAD IN % Azoxystrobin ([5]; Azoxystrobin alone, 0.0625 ppm AI) | AVERAGE DEAD IN % ([5]; alone, 0.0625 ppm AI)
20%: AVERAGE DEAD IN % ([2]; applied alone, 0.125 ppm AI) | AVERAGE DEAD IN % ([2]; applied alone, 0.25 ppm AI) | AVERAGE DEAD IN % ([2]; applied alone, 0.5 ppm AI) | AVERAGE DEAD IN % ([2]; applied alone, 1 ppm AI) | AVERAGE DEAD IN % ([2]; applied alone, 2 ppm AI) | AVERAGE DEAD IN % [2, 10] | AVERAGE DEAD IN % [2, 9] | AVERAGE DEAD IN % ([2]; single compound at 0.25 ppm AI) | AVERAGE DEAD IN % ([2]; single compound at 0.5 ppm AI) | AVERAGE DEAD IN % ([2]; single compound at 1 ppm AI) | AVERAGE DEAD IN % ([2]; single compound at 2 ppm AI) | AVERAGE DEAD IN % ([3]; applied alone, 0.125 ppm AI) | AVERAGE DEAD IN % ([3]; applied alone, 0.25 ppm AI) | AVERAGE DEAD IN % ([3]; single compound at 0.00390625 ppm AI) | AVERAGE DEAD IN % ([4]; 0.015625 ppm AI) | AVERAGE DEAD IN % ([5]; 0.015625 ppm AI, alone) | AVERAGE DEAD IN % Azoxystrobin ([5]; Azoxystrobin alone, 0.015625 ppm AI) | AVERAGE DEAD IN % ([5]; alone, 0.015625 ppm AI) | AVERAGE DEAD IN % ([6]; 0.015625 PPM AI) | AVERAGE DEAD IN % ([7]; alone, 1 PPM AI) | AVERAGE DEAD IN % ([7]; alone, 2 PPM AI)
100% and 50%: AVERAGE DEAD IN % ([3]; single compound at 0.03125 ppm AI)

COC(c1ccc(Cl)cc1Cl)C(C)NC(=O)c1cn(C)nc1C(F)F (centres unmarked) [COMPOUND IV]
90%: AVERAGE DEAD IN % ([8]; 1 ppm AI) | AVERAGE DEAD IN % ([5]; 0.25 ppm AI, alone) | AVERAGE DEAD IN % ([6]; 0.125 ppm AI) | AVERAGE DEAD IN % ([6]; 0.125 PPM AI)
20%: AVERAGE DEAD IN % ([8]; 0.0625 ppm AI) | AVERAGE DEAD IN % ([8]; 0.125 ppm AI) | AVERAGE DEAD IN % ([5]; 0.125 ppm AI, alone) | AVERAGE DEAD IN % ([6]; 0.0625 ppm AI) | AVERAGE DEAD IN % ([7]; alone, 1 PPM AI) | AVERAGE DEAD IN % ([7]; single compound, 1 PPM AI, 48 hrs, 24° C.)
0%: AVERAGE DEAD IN % ([3]; single compound at 0.25 ppm AI) | AVERAGE DEAD IN % ([3]; single compound at 0.5 ppm AI) | AVERAGE DEAD IN % ([3]; single compound at 1 ppm AI) | AVERAGE DEAD IN % ([8]; 0.03125 ppm AI) | AVERAGE DEAD IN % ([7]; single compound, 0.5 PPM AI, 48 hrs, 24° C.)
70%: AVERAGE DEAD IN % ([8]; 0.5 ppm AI)
90% and 100%: AVERAGE DEAD IN % COMPOUND IV ([5]; COMPOUND IV alone, 0.5 ppm AI)
70% and 90%: AVERAGE DEAD IN % COMPOUND IV ([5]; COMPOUND IV alone, 0.25 ppm AI)
50%: AVERAGE DEAD IN % ([8]; 0.25 ppm AI) | AVERAGE DEAD IN % ([7]; alone, 2 PPM AI) | AVERAGE DEAD IN % ([7]; single compound, 2 PPM AI, 48 hrs, 24° C.)

N#Cc1c(Cl)c(Cl)c(Cl)c(C#N)c1Cl [Chlorothalonil, reference compound]
50% and 90%: AVERAGE DEAD IN % ([4]; 0.25 ppm AI)
90%: AVERAGE DEAD IN % ([2]; applied alone, 1 ppm AI)
20%: AVERAGE DEAD IN % Chlorothalonil ([5]; Chlorothalonil alone, 0.25 ppm AI) | AVERAGE DEAD IN % ([6]; 0.125 ppm AI) | AVERAGE DEAD IN % ([6]; 0.25 PPM AI)
50%: AVERAGE DEAD IN % ([5]; 0.5 ppm AI, alone)
70%: AVERAGE DEAD IN % ([2]; applied alone, 0.5 ppm AI) | AVERAGE DEAD IN % ([4]; 0.5 ppm AI) | AVERAGE DEAD IN % Chlorothalonil ([5]; Chlorothalonil alone, 0.0625 ppm AI) | AVERAGE DEAD IN % ([5]; alone, 1 ppm AI) | AVERAGE DEAD IN % ([6]; 0.5 ppm AI)
50% and 100% and 90%: AVERAGE DEAD IN % ([3]; single compound at 1 ppm AI)
90% and 100%: AVERAGE DEAD IN % ([3]; single compound at 2 ppm AI)
100% and 70%: AVERAGE DEAD IN % ([6]; 0.5 PPM AI)
0%: AVERAGE DEAD IN % ([1]; single compound at 0.25 ppm AI) | AVERAGE DEAD IN % ([1]; single compound at 0.5 ppm AI) | AVERAGE DEAD IN % ([1]; single compound at 1 ppm AI) | AVERAGE DEAD IN % ([2]; single compound at 1 ppm AI) | AVERAGE DEAD IN % ([2]; single compound at 2 ppm AI) | AVERAGE DEAD IN % ([3]; single compound at 0.25 ppm AI) | AVERAGE DEAD IN % ([5]; 0.25 ppm AI, alone) | AVERAGE DEAD IN % Chlorothalonil ([5]; Chlorothalonil alone, 0.03125 ppm AI) | AVERAGE DEAD IN % ([7]; alone, 0.5 PPM AI)

Source: patent US20120324604A1, “PESTICIDAL MIXTURES CONTAINING ISOXAZOLINE DERIVATIVES AND A FUNGICIDE” (priority 2010, published 2012)
